In the CheMixHub viscosity set:
Several values for one entry are separate records, joined by “and”; a condition that tells them apart may be missing. Identical values can stand only once.

Assay: xn = mol fraction of the nth substance listed

CC(C)c1ccccc1 + CCCCCCCCCCCCCCCC
viscosity [mPa·s], 100 kPa
Details	x2 = 0.0536	x2 = 0.1093	x2 = 0.2207	x2 = 0.2969	x2 = 0.4217	x2 = 0.5376	x2 = 0.6083	x2 = 0.7347	x2 = 0.823	x2 = 0.8933
298.15 K	0.834	0.921	1.117	1.249	1.525	1.815	2.002	2.356	2.602	2.783
308.15 K	0.77	0.846	1.018	1.136	1.348	1.561	1.687	1.932	2.098	2.236
318.15 K	0.688	0.76	0.904	1.003	1.176	1.34	1.444	1.629	1.756	1.859

CCCCOC(C)=O + CCCCCCCCCCCCCCCC
298.15 K, 101.3 kPa
Details	viscosity [mPa·s]
x1 = 0.0797	2.778
x1 = 0.127	2.606
x1 = 0.2518	2.227
x1 = 0.3552	1.944
x1 = 0.4446	1.716
x1 = 0.5252	1.539
x1 = 0.5544	1.484
x1 = 0.594	1.39
x1 = 0.7165	1.149
x1 = 0.8169	0.9655
x1 = 0.8982	0.834
x1 = 0.952	0.7259

C=COC(C)=O + CCCCCCCCCCO
303.15 K, 101.33 kPa
Details	viscosity [mPa·s]
x1 = 0.1013	6.774
x1 = 0.1998	4.804
x1 = 0.3007	3.437
x1 = 0.3991	2.488
x1 = 0.5006	1.793
x1 = 0.6004	1.31
x1 = 0.6957	0.952
x1 = 0.8003	0.682
x1 = 0.904	0.489

CCCN + CCCCCCCCCCO
viscosity [mPa·s], 101.33 kPa
Details	x1 = 0.0915	x1 = 0.1817	x1 = 0.283	x1 = 0.3906	x1 = 0.4858	x1 = 0.59	x1 = 0.718	x1 = 0.8181	x1 = 0.9058
303.15 K	7.465	6.249	5.036	3.906	3.037	2.211	1.384	0.8865	0.5706
313.15 K	5.86	4.82	3.89	2.973	2.284	1.654	1.051	0.7052	0.481

C=COC(C)=O + CCCCCCCCO
303.15 K, 101.33 kPa
Details	viscosity [mPa·s]
x1 = 0.1001	4.448
x1 = 0.2008	3.155
x1 = 0.3002	2.302
x1 = 0.4017	1.705
x1 = 0.4997	1.279
x1 = 0.6008	0.965
x1 = 0.6993	0.743
x1 = 0.7981	0.577
x1 = 0.8965	0.459

CCCCOC(C)=O + CCCCCCCCO
viscosity [mPa·s], 101 kPa
Details	x2 = 0.085	x2 = 0.1729	x2 = 0.2638	x2 = 0.3579	x2 = 0.4554	x2 = 0.5564	x2 = 0.6611	x2 = 0.7698	x2 = 0.8827
298.15 K	0.884	1.13	–	1.808	2.27	2.845	3.578	4.535	5.81
303.15 K	0.813	1.03	1.298	1.623	2.017	2.505	3.119	3.918	4.98
308.15 K	0.748	0.938	1.171	1.453	1.789	2.197	2.71	3.378	4.252
313.15 K	0.689	0.855	1.059	1.305	1.591	1.938	2.372	2.932	3.66

CCCN + CCCCCCCCO
viscosity [mPa·s], 101.33 kPa
Details	x1 = 0.1005	x1 = 0.1898	x1 = 0.3064	x1 = 0.385	x1 = 0.4834	x1 = 0.5835	x1 = 0.6813	x1 = 0.7916	x1 = 0.8908
303.15 K	4.988	4.15	3.23	2.689	2.107	1.601	1.182	0.8056	0.5464
313.15 K	3.651	3.052	2.37	1.976	1.563	1.203	0.9234	0.6649	0.4703

CCCCCCCC[N+](C)(C)CCOCCO.Cc1cc(Cl)ccc1OCC(=O)[O-] + CCCCCCCC[N+](C)(C)CCOCCO.COc1c(Cl)ccc(Cl)c1C(=O)[O-]
100 kPa, x1 = 0.58
Details	viscosity
293.15 K	12650 mPa·s and 12650 mPa·s
303.15 K	4260 mPa·s
313.15 K	1780 mPa·s
323.15 K	831.5 mPa·s

CN1CCCN(C)C1=O + CCCCCCCCn1cc[n+](C)c1.[Cl-]
308.15 K, 100 kPa
Details	viscosity [mPa·s]
x2 = 0.0999	7.275
x2 = 0.2997	61.15

CCCN + CCCCCCCO
viscosity [mPa·s], 101.33 kPa
Details	x1 = 0.0918	x1 = 0.1876	x1 = 0.2917	x1 = 0.3927	x1 = 0.4818	x1 = 0.6142	x1 = 0.7167	x1 = 0.7997	x1 = 0.9056
303.15 K	4.047	3.35	2.669	2.114	1.687	1.177	0.8748	0.678	0.4813
313.15 K	3.046	2.522	2.023	1.593	1.28	0.9105	0.6933	0.5549	0.4105

CN1CCCN(C)C1=O + CCCCCCn1cc[n+](C)c1.[Cl-]
100 kPa
Details	viscosity [mPa·s]
298.15 K, x2 = 0.3083	45.85
308.15 K, x2 = 0.3981	63.85

CCCCOC(C)=O + CCCCCO
viscosity [mPa·s], 101 kPa
Details	x1 = 0.0963	x1 = 0.2032	x1 = 0.2987	x1 = 0.4058	x1 = 0.4868	x1 = 0.5981	x1 = 0.7048	x1 = 0.7976	x1 = 0.8954
298.15 K	2.974	2.512	2.15	1.797	1.561	1.284	1.059	0.907	0.769
303.15 K	2.593	2.191	1.886	1.573	1.37	1.14	0.963	0.846	0.723
308.15 K	2.287	1.933	1.669	1.396	1.223	1.025	0.875	0.776	0.678
313.15 K	2.018	1.714	1.483	1.261	1.107	0.941	0.809	0.717	0.639

CCCN + CCCCCO
viscosity [mPa·s], 101.33 kPa
Details	x1 = 0.0915	x1 = 0.1847	x1 = 0.3069	x1 = 0.4139	x1 = 0.4894	x1 = 0.581	x1 = 0.7163	x1 = 0.8117	x1 = 0.9
303.15 K	2.504	2.167	1.755	1.431	1.224	0.9914	0.7168	0.5615	0.4508
313.15 K	2.066	1.79	1.437	1.176	1.003	0.8193	0.6111	0.488	0.3958

CCOC(=O)c1ccc(O)cc1 + CCCCCOC(C)=O
Details	viscosity [mPa·s]
298.15 K, 101 kPa, x1 = 0.5	1.66

Oc1ccccc1Cl + CCCCCOC(C)=O
Details	viscosity [mPa·s]
298.15 K, 101 kPa, x1 = 0.5	1.202

CCCN + CCCCN(CCCC)CCCC
303.15 K, 101 kPa
Details	viscosity [mPa·s]
x2 = 0.2025	0.5088
x2 = 0.4055	0.6949
x2 = 0.4953	0.7795
x2 = 0.603	0.8793
x2 = 0.7931	1.04

Oc1ccccc1Cl + CCCCN(CCCC)CCCC
298.16 K, 101 kPa
Details	viscosity [mPa·s]
x1 = 0.5022	21.91
x1 = 0.5499	34.61
x1 = 0.6012	82.36
x1 = 0.6516	192.6
x1 = 0.7025	410.1
x1 = 0.7266	475.5
x1 = 0.7554	427.4
x1 = 0.7826	289.1
x1 = 0.8001	191.3
x1 = 0.812	134.4
x1 = 0.8523	63.53
x1 = 0.8708	39.93
x1 = 0.8974	19.56
x1 = 0.9113	9.963
x1 = 0.9432	4.507
x1 = 0.9687	2.537
x2 = 0.004631	2.323
